Source: ChEMBL document CHEMBL1133918, “Design, synthesis and antiproliferative activity of tripentones: a new series of antitubulin agents” (Bioorg Med Chem Lett, 2001)

Legend:
Hs-578T = test: Tested for cytostatic activity against Breast Hs 578.T cell line of NCI 60 tumor cell line panel; assay type: functional; settings: Homo sapiens
SF-295 = test: Tested for cytostatic activity against Central nervous system SF-295 cell line of NCI 60 tumor cell line panel; assay type: functional; settings: Homo sapiens
A498 = test: Tested for cytostatic activity against Renal A-498 cell line of NCI 60 tumor cell line panel; assay type: functional; settings: Homo sapiens
OVCAR-3 [1] = test: Tested for cytostatic activity against Ovarian OVCAR-3 cell line of NCI 60 tumor cell line panel; assay type: functional; settings: Homo sapiens
HCC 2998 = test: Tested for cytostatic activity against colon HCC2998 cell line of NCI 60 tumor cell line panel; assay type: functional; settings: Homo sapiens
EKVX = test: Tested for cytostatic activity against non small cell lung(NSCL) EKVX cell line of NCI 60 tumor cell line panel; assay type: functional; settings: Homo sapiens
SK-MEL-2 = test: Tested for cytostatic activity against Melanoma SK-MEL2 cell line of NCI 60 tumor cell line panel; assay type: functional; settings: Homo sapiens
DU-145 [2] = test: Tested for cytostatic activity against Prostate DU-145 cell line of NCI 60 tumor cell line panel; assay type: functional; settings: Homo sapiens
MOLT-4 = test: Tested for cytostatic activity against Leukemia MOLT-4 cell line of NCI 60 tumor cell line panel; assay type: functional; settings: Homo sapiens
KB = test: Tested for antiproliferative activity against KB-A1 tumoral cell line; assay type: functional, cell-based; settings: Homo sapiens
A2780 = test: Tested for antiproliferative activity against A-2780 tumoral cell line; assay type: functional, cell-based; settings: Homo sapiens
[3] = Concentration required to alter the assembly reaction of microtubules without any depolymerization effect; assay type: functional
OVCAR-3 [4] = test: Tested for antiproliferative activity against Ovcar-3 tumoral cell line; assay type: functional, cell-based; settings: Homo sapiens
L1210 [5] = test: In vitro inhibitory concentration against L1210 leukemia cell line for antiproliferative activity; assay type: functional, cell-based; settings: Mus musculus
DU-145 [6] = test: Tested for antiproliferative activity against DU145 tumoral cell line; assay type: functional, cell-based; settings: Homo sapiens
P388 = test: Tested for antiproliferative activity against P388 tumoral cell line; assay type: functional, cell-based; settings: Mus musculus
B16 = test: Tested for antiproliferative activity against B16 tumoral cell line; assay type: functional, cell-based; settings: Mus musculus
P388/VCR-20 = test: Tested for antiproliferative activity against VCR-20 tumoral cell line; assay type: functional, cell-based; settings: Mus musculus
L1210 [7] = test: Tested for antiproliferative activity against L1210 tumoral cell line; assay type: functional, cell-based; settings: Mus musculus
KB 3-1 = test: Tested for antiproliferative activity against KB 3-1 tumoral cell line; assay type: functional, cell-based; settings: Homo sapiens
NCI-H69 = test: Tested for antiproliferative activity against H-69 tumoral cell line; assay type: functional, cell-based; settings: Homo sapiens
L1210 [8] = test: Effect in the G2/M phase of L1210 leukemia cell with a significant percentage of cells having 8N DNA content at 0.5 uM; assay type: functional, Mus musculus
[9] = Inhibition of tubulin polymerization; assay type: functional
L1210 [10] = test: Effect in the G2/M phase of L1210 leukemia cell with a significant percentage of cells having 8N DNA content at 25 uM; assay type: functional, Mus musculus
L1210 [11] = test: Effect in the G2/M phase of L1210 leukemia cell with a significant percentage of cells having 8N DNA content at 10 uM; assay type: functional, Mus musculus
L1210 [12] = test: Effect in the G2/M phase of L1210 leukemia cell with a significant percentage of cells having 8N DNA content at 1 uM; assay type: functional, Mus musculus
L1210 [13] = test: Effect in the G2/M phase of L1210 leukemia cell with a significant percentage of cells having 8N DNA content at 5 uM; assay type: functional, Mus musculus
L1210 [14] = test: Effect in the G1 phase of L1210 leukemia cell at 50 uM; assay type: functional, Mus musculus

Q: For `O=C1c2scc(-c3ccc(F)cc3)c2-n2cccc21`, which GI50 (Hs-578T) is on record?
A: 20 µM

Q: And the GI50 (SF-295)?
A: 25.1 µM

Q: And the GI50 (A498)?
A: 1580 nM

Q: And the GI50 (OVCAR-3 [1])?
A: 50.1 µM

Q: What about the GI50 (HCC 2998) of the same compound?
A: 25.1 µM

Q: What about the GI50 (EKVX) of the same compound?
A: 25.1 µM

Q: What about the GI50 (SK-MEL-2) of the same compound?
A: 31.6 µM

Q: And the GI50 (DU-145 [2])?
A: 79.4 µM

Q: And the GI50 (MOLT-4)?
A: 25.1 µM

Q: With `COc1ccc(-c2csc3c2-n2cccc2C3=O)cc1O` as the compound, how does the IC50 (KB) read?
A: 15 nM

Q: What about the IC50 (A2780) of the same compound?
A: 41 nM

Q: What about the IC50 [3] of the same compound?
A: 2900 nM

Q: And the IC50 (OVCAR-3 [4])?
A: 31 nM

Q: What about the IC50 (L1210 [5]) of the same compound?
A: 0.015 µM

Q: And the IC50 (DU-145 [6])?
A: 43 nM

Q: And the IC50 (P388)?
A: 38 nM

Q: What about the IC50 (B16) of the same compound?
A: 23 nM

Q: And the IC50 (P388/VCR-20)?
A: 21 nM

Q: What about the IC50 (L1210 [7]) of the same compound?
A: 15 nM

Q: And the IC50 (KB 3-1)?
A: 18 nM

Q: And the IC50 (NCI-H69)?
A: 36 nM

Q: And the Effect (L1210 [8])?
A: 80%

Q: With `CCCOc1ccc(-c2csc3c2-n2cccc2C3=O)cc1` as the compound, how does the IC50 (L1210 [5]) read?
A: 28.1 µM

Q: Which GI50 (Hs-578T) does the source give for `COc1ccc(-c2csc3c2-n2cccc2C3=O)cc1` here?
A: 0.0501 µM

Q: And the GI50 (SF-295)?
A: 0.0398 µM

Q: What about the GI50 (A498) of the same compound?
A: 631 nM

Q: And the GI50 (OVCAR-3 [1])?
A: 0.0398 µM

Q: And the GI50 (HCC 2998)?
A: 0.316 µM

Q: And the IC50 (L1210 [5])?
A: 0.19 µM

Q: What about the GI50 (EKVX) of the same compound?
A: 0.794 µM

Q: What about the GI50 (SK-MEL-2) of the same compound?
A: 0.398 µM

Q: What about the GI50 (DU-145 [2]) of the same compound?
A: 0.158 µM

Q: And the Effect (L1210 [8])?
A: 83%

Q: And the GI50 (MOLT-4)?
A: 0.0398 µM

Q: Which IC50 [9] does the source give for `COc1cc([C@@H]2c3cc4c(cc3C[C@H]3COC(=O)[C@@H]32)OCO4)cc(OC)c1OC` [DESOXYPODOPHYLLOTOXIN] here?
A: 2400 nM

Q: With `COc1cc(-c2csc3c2-n2cccc2C3=O)cc(OC)c1OC` as the compound, how does the IC50 (L1210 [5]) read?
A: 36.4 µM

Q: With `O=C1c2scc(-c3cccc(O)c3)c2-n2cccc21` as the compound, how does the IC50 (L1210 [5]) read?
A: 29 µM

Q: Which IC50 (L1210 [5]) does the source give for `COc1cc(-c2csc3c2-n2cccc2C3=O)ccc1O` here?
A: 8 µM

Q: And the Effect (L1210 [10])?
A: 86%

Q: With `O=C1c2scc(-c3ccc4c(c3)OCO4)c2-n2cccc21` as the compound, how does the IC50 (L1210 [5]) read?
A: 4.2 µM

Q: What about the Effect (L1210 [11]) of the same compound?
A: 88%

Q: With `O=C1c2scc(-c3ccccc3)c2-n2cccc21` as the compound, how does the GI50 (Hs-578T) read?
A: 5.01 µM

Q: And the GI50 (SF-295)?
A: 20 µM

Q: What about the GI50 (A498) of the same compound?
A: 1580 nM

Q: And the GI50 (OVCAR-3 [1])?
A: 15.8 µM

Q: What about the GI50 (HCC 2998) of the same compound?
A: 20 µM

Q: What about the IC50 (L1210 [5]) of the same compound?
A: 26.7 µM

Q: What about the GI50 (EKVX) of the same compound?
A: 5.01 µM

Q: And the GI50 (SK-MEL-2)?
A: 12.6 µM

Q: What about the GI50 (DU-145 [2]) of the same compound?
A: 25.1 µM

Q: And the GI50 (MOLT-4)?
A: 12.6 µM

Q: What does the source list for `CCOc1ccc(-c2csc3c2-n2cccc2C3=O)cc1`?
A: Effect (L1210 [12]): 88%; IC50 (L1210 [5]): 0.43 µM

Q: With `Cc1csc2c1-n1cccc1C2=O` as the compound, how does the IC50 (L1210 [5]) read?
A: > 100 µM

Q: With `COc1ccccc1-c1csc2c1-n1cccc1C2=O` as the compound, how does the IC50 (L1210 [5]) read?
A: 18.9 µM

Q: What about the Effect (L1210 [13]) of the same compound?
A: 75%

Q: Which IC50 (L1210 [5]) does the source give for `COc1cccc(-c2csc3c2-n2cccc2C3=O)c1` here?
A: 5.2 µM

Q: And the Effect (L1210 [10])?
A: 94%

Q: Which IC50 (L1210 [5]) does the source give for `O=C1c2scc(-c3ccc(O)cc3)c2-n2cccc21` here?
A: 30.1 µM

Q: Which results are given for `O=C1c2scc(-c3ccc(O)c(O)c3)c2-n2cccc21`?
A: IC50 (L1210 [5]): 0.28 µM; Effect (L1210 [8]): 86%

Q: Which IC50 (L1210 [5]) does the source give for `O=C1c2sccc2-n2cccc21` here?
A: > 100 µM

Q: What does the source list for `O=C1c2scc(-c3ccc(Cl)cc3)c2-n2cccc21`?
A: GI50 (Hs-578T): 2 µM; GI50 (SF-295): > 100 µM; GI50 (A498): 1000 nM; GI50 (OVCAR-3 [1]): > 100 µM; GI50 (HCC 2998): > 100 µM; GI50 (EKVX): 2.51 µM; GI50 (SK-MEL-2): > 100 µM; GI50 (DU-145 [2]): > 100 µM; GI50 (MOLT-4): 79.4 µM

Q: Which IC50 (L1210 [5]) does the source give for `CCCCOc1ccc(-c2csc3c2-n2cccc2C3=O)cc1` here?
A: 29.6 µM

Q: For `O=C1c2scc(-c3ccccc3O)c2-n2cccc21`, which IC50 (L1210 [5]) is on record?
A: 3.7 µM

Q: And the Effect (L1210 [14])?
A: 72%

Q: With `COc1ccc(-c2csc3c2-n2cccc2C3=O)cc1OC` as the compound, how does the IC50 (L1210 [5]) read?
A: 11.7 µM

Q: What about the Effect (L1210 [10]) of the same compound?
A: 86%
